Measurements reported in US8404283B2, “Standardized plant extract, process for obtaining the same and uses thereof” (Eurofarma Laboratorios Ltda, priority 2007, dated 2013).

Experiments:
[1] = test system: Swiss Webster mice; test: formalin induced pain model (Phase I, Phase II, edema); type: in vivo; conditions: oral administration
From the text: This model is more specific than the acetic acid induced abdominal contortion model. It allows the assessment of two distinct types of pain: the pain of neurogenic origin (direct stimulation of the nociceptive neurons) and of inflammatory origin, representing the tonic response to pain, accompanied by an inflammatory response related to the release of chemical inflammation mediators. […] Immediately after the formalin injection, the animals were placed under a glass dome surrounded by mirrors in order to facilitate observation of the ensuing behaviour. Observation commenced immediately, initially timing the reaction to pain during the first 5 minutes after the formalin injection (corresponding to the period of neurogenic pain). Following an interval of 10 minutes, the licking times were recorded for a further 15 minutes (corresponding to the inflammatory pain). Total test time was of 30′.
At the end of this observation period, the animals were sacrificed by cervical displacement and the rear paws were removed at the tibiotarsal region and weighed on an analytical balance to quantify the edema induced by the formalin. The difference in weight (in mg) between the right paw (injected with formalin) and the left paw (injected with saline) was considered the rate of edema. […] Each analysis was performed using 8 to 10 male animals (Swiss Webster mice) weighing between 25 and 30 g.
The dose was calculated individually for each animal with the quantity in mg/kg (mg/1.000 g) of the substance to be administrated being in accordance to its weight. The injected volume of the solutions followed the rule of 0.1 ml/10 g of the animal's weight.
The animals were observed after the intraplantar injection of formalin for a period of 30 minutes. The reaction time (time in which the animal remains licking the injected paw) is then quantified in each of the phases: phase I (neurogenic pain—5 min observation) and phase II (inflammatory pain—15 min observation).
(§1) Parametric statistical tests were performed on the models described above. The results were submitted to ANOVA variance analysis followed by appropriate post hoc tests. […] The statistical analyses of the results were performed by means of variance analysis followed by the multiple comparison test using the Dunnett method, when appropriate. Values of p<0.05 were considered to indicate significance. The DI50 was estimated by means of individual experiments using GraphPad Instat statistical software.

[2] = test system: Swiss Webster mice; test: abdominal contortion model induced by acetic acid; type: in vivo; conditions: oral administration; for DI50: dose reducing response by 50%, 95% limits; for IM (%): inhibition of number of contortions
Experimental: The experimental acetic acid induced abdominal contortion model allows assessment of the antinociceptive activity of various substances that act both at central and peripheral levels. Nociceptive response is induces by the intraperitonal injection of acetic acid (0.6%) diluted in saline solution (0.9%). The abdominal contortions consist in the contraction of the abdominal muscles combined with the extension of one of the rear paws.
Each analysis was performed using 8 to 10 male animals (Swiss Webster mice) weighing between 25 and 30 g. The dose was calculated individually for each animal with the quantity in mg/kg (mg/1.000 g) of the substance to be administrated being in accordance to its weight. The injected volume of the solutions followed the rule of 0.1 ml/10 g of the animal's weight.
as §1

[3] = test system: mice; conditions: cited from earlier work

CC(=O)Oc1ccccc1C(=O)O [AAS]
DI50 ([1]; Edema): >500 mg/kg | IM (%) ([1]; Edema): 31.7% | DI50 ([1]; Phase I (neurogenic)): >500 mg/kg | IM (%) ([1]; Phase I (neurogenic)): 12.7% | DI50 (mg/kg) ([1]; Phase II (inflammatory)): 408.87 (391.47-427.03) mg/kg | IM (%) ([1]; Phase II (inflammatory)): 65.7% | DI50 [2]: 364.1 mg/kg | IM (%) [2]: 64.5%

COc1cc2oc(-c3ccc(O)cc3)cc(=O)c2c(O)c1[C@@H]1O[C@H](CO)[C@@H](O)[C@H](O)[C@H]1O [swertisin]
analgesic effect on acetic acid induced abdominal contortions ([3]; Meyre-Silva et al. 1998, 1999): did not have an analgesic effect

O=C(O)Cc1ccccc1Nc1c(Cl)cccc1Cl [Diclophenac]
DI50 ([1]; Edema): >500 mg/kg | IM (%) ([1]; Edema): 33.7% | DI50 (mg/kg) ([1]; Phase I (neurogenic)): 407.48 (357.56-464.37) mg/kg | IM (%) ([1]; Phase I (neurogenic)): 68.8% | IM (%) ([1]; Phase II (inflammatory)): 82.5% | DI50 [2]: 443.07 mg/kg | IM (%) [2]: 51.6%

COc1cc2oc(-c3ccc(O)cc3)cc(=O)c2c(O)c1[C@@H]1O[C@H](CO)[C@@H](O)[C@H](O)[C@H]1O[C@@H]1O[C@@H](C)[C@H](O)[C@@H](O)[C@H]1O [2″-O-rhamnosylswertisin]
analgesia, potency relative to aspirin ([3]; Meyre-Silva et al. 1999): approximately 16 times

COc1ccc2c(c1)c(CC(=O)O)c(C)n2C(=O)c1ccc(Cl)cc1 [Indomethacin]
DI50 ([1]; Edema): >300 mg/kg | IM (%) ([1]; Edema): 36.5% | DI50 ([1]; Phase I (neurogenic)): >300 mg/kg | IM (%) ([1]; Phase I (neurogenic)): 7.2% | DI50 (mg/kg) ([1]; Phase II (inflammatory)): 263.42 (239.83-289.35) mg/kg | IM (%) ([1]; Phase II (inflammatory)): 53.1% | DI50 [2]: 189.95 mg/kg | IM (%) [2]: 72.0%
